Results on 5 compounds are retold here after patent US5488068A, “Aminobiphenyl-4-ol anti-atherosclerotic compounds and method” (Bristol-Myers Squibb Company, priority 1994, dated 1996).

Assay [1] concerns human LDL. Kind of assay: Secondary in vitro screen: LDL oxidation initial rate and lag time after in vitro plasma incorporation of compound into LDL. In kind it is biochemical. To be noted: 25 μM in plasma incorporation; CuSO4 2.5 μM, 20°. An excerpt:
(§1) The initial and later stages of LDL oxidation can be distinguished kinetically in vitro by measuring the formation of lipid conjugated diene oxidation products (ref. 10). By analogy to the behavior of antioxidants in simple single-phase systems (ref. 11), in vitro test systems were established to quantitate the protective effects of pure chemical compounds on Cu^++ -dependent LDL oxidation initial rate and lag phase. Both in vitro and ex vivo methods were employed to incorporate compounds into LDL. The magnitude of the decrease in the initial rate of conjugated diene formation was used as an estimate of the intrinsic LDL antioxidant potency of the test compound. The magnitude of the increase in lag time for the propagation phase of the oxidation chain reaction was used as an estimate of the effective concentration within LDL of the test compound. By this approach, quantitative estimation of the LDL antioxidant activity of compounds was used to identify chain-terminating antioxidants appropriate for testing in an in vivo atherosclerosis animal model.
(§2) A plasma incorporation technique was used in this procedure to test for the partitioning of a compound into LDL and its retention during LDL isolation by ultracentrifugation and dialysis. The antioxidant activity remaining in LDL was then assayed by measuring the initial rate of Cu^++ -dependent conjugated diene formation, and the lag time before extensive formation of conjugated diene oxidation products. Incorporation of test compounds into LDL in vitro was achieved by addition of an aliquot of compound (final concentration 25 μM) in DMSO to aliquots of pooled human plasma previously dialyzed overnight in buffer 1 (10 mM HEPES, 150 mM NaCl, pH 7.2) and adjusted to d=1.019 with solid KBr, and incubating for 60 min at 37°. LDL was then isolated from plasma as the ([…] to d=1.063 g/ml) fraction by standard sequential flotation techniques using KBr solution discontinuous density gradients in an ultracentrifuge by a method adapted from the original procedure of Havel (J. Clin. Invest. 34:1345). The isolated LDL was dialyzed for 1 hour into buffer 1, and aliquots were added to cuvettes at 100 μg protein/ml in buffer 1. Oxidation reactions were initiated with CuSO4 (2.5 μM) at 20°. The LDL initial oxidation rate and lag time were measured by continuous monitoring of absorbance at 234 nm in a Beckman DU-7500 spectrophotometer. The initial oxidation rate was calculated as the slope of the linear regression curve of A234 vs. time over the first ~60 min. Percent of control was calculated for test compound vs. DMSO vehicle controls. Lag time was calculated as the time corresponding to the maximum value of the first derivative of the A234 vs. time curve. The value of the lag time from the A234 vs. time curve for test compounds compared to vehicle control was expressed as percent of control. Results are given in Table 2; a decrease vs. control in the initial rate, and an increase vs. control in the lag time, reflect an active antioxidant.

Assay [2] concerns aortic foam cell atherosclerosis lesion. As to the kind of experiment: In vivo atherosclerosis model in hamsters: aortic foam cell lesion size after 10 weeks. The conditions noted are these: hamster; for aortic lesion size: oral in diet, mean ± SEM, n=12. On the procedure: Atherosclerosis in hamsters is confined initially to a lesion prone area along the inner curvature of the aortic arch. Early atherogenesis in this region is characterized by the infiltration of monocytes which become lipid-filled macrophage foam cells, which can develop into complex fibrous atheromas. Antioxidants selected from primary and secondary in vitro screens and ex vivo assays were tested for their ability to inhibit macrophage foam cell lesion formation in hamsters in 10 weeks studies. Lesion size was assayed by video microscopy/image analysis of histological specimens of the aortic arch stained with the lipophilic dye, oil red O. Hamsters were maintained on a diet deficient in vitamins E, C, and K/menadione, selenium, and carotenoids, and supplemented with vitamin E-stripped corn oil (10%) and cholesterol (0.4%). This diet amplified oxidant stress while only moderately elevating plasma cholesterol and LDL levels. Test compounds were administered in this diet fed ad libitum for 10 weeks. The dosages are given as mg/kg/day based on food consumption measurements and weight of the animals at the end of the 10 week dosing period. […] Results are given in Table 4; a decrease in lesion size relative to control indicates an effective anti-atherosclerotic agent.

Assay [3] has as its system LDL. As to the kind of experiment: Ex vivo LDL oxidation susceptibility assay in hamsters after 2 weeks oral administration. To be noted: hamster; for ex vivo LDL oxidation initial rate / ex vivo LDL oxidation lag time: oral in diet, mean of 4 to 6 hamsters.
Description: as §1, §2
Compounds were administered orally to hamsters for 2 weeks using the same diet described for the atherosclerosis studies (part D.) At 2 weeks, hamsters were fasted overnight, blood was collected, and LDL was isolated as described above (part B). The same assay methods described above (part B.) were then used to obtain ex vivo LDL oxidation initial rate and lag time values. Results are given in Table 3; a decrease vs. control in the initial rate, and an increase in the lag time, reflect an active antioxidant.

The subject of assay [4] is human LDL. Kind of assay: Primary in vitro screen: inhibition of initial rate of Cu++-dependent LDL lipid oxidation, compound directly added to LDL. The conditions noted are these: CuSO4 10 μM, 37°, 90 min. The class given is biochemical.
Description: as §1
This procedure determined the ability of test compounds added directly to LDL to inhibit the initial rate of LDL lipid oxidation monitored by conjugated diene content. The initial rate of conjugated diene formation was approximately linear with respect to time for approximately 2 hours under the conditions employed, prior to the end of the lag phase characterized by rapid propagation of the radical chain reaction and a corresponding large increase in conjugated diene content of the LDL sample. In the assay, aliquots of compounds dissolved in DMSO (and DMSO vehicle controls) were directly added to isolated human LDL (600 μg protein/mL) in Buffer 1 (10 mM HEPES, 150 mM NaCl, pH 7.2), and incubated at 37° for 60 min. Duplicate samples were then subjected to controlled oxidation by addition of CuSO4 (10 μM) and incubation at 37° for 0 or 90 min. The reaction was quenched by diluting with 5 volumes of buffer 1 plus EDTA (20 μM final) at 0° -4°. The conjugated diene levels in the LDL samples, a quantitative indicator of lipid peroxidation rate and extent, was determined spectrophotometrically by absorbance at 234 nm for each sample at 0 min and at 90 min time points of the CuSO4 incubation. […] Results are given in Table 1; a decrease vs. control reflects an active antioxidant.

In a further assay the test system is aortic lesions. The conditions noted are these: cited from earlier work.
Assay [5] deals with LDL. The conditions noted are these: rabbit, in vivo; cited from earlier work.
For assay [6], the system named is LDL. To be noted: animal models of atherosclerosis, high doses; cited from earlier work.
Another assay relates to arterial lesion. To be noted: animal models of atherosclerosis, high doses; cited from earlier work.

Consider `CN(C)c1cc(-c2ccccc2)ccc1O` [Example 1, 3-(Dimethylamino)[1,1'-biphenyl]-4-ol], for which the “LDL oxidation initial rate” value is on record as 17.9 % of control in the assay with human LDL [1]; 66.2 % of control in the assay on human LDL [4] (0.30 μM); 42.2 % of control in the assay on human LDL [4] (1.0 μM); 34.0 % of control with human LDL [4] (3.0 μM); 1.7 % of control in the assay with human LDL [4] (10 μM). For the same compound, the “LDL oxidation lag time” value in the assay with human LDL [1] is reported as 237 % of control. Also, in assay [2] (oral), the “anti-atherosclerotic effectiveness relative to probucol” value was “markedly more effective than the reference agent probucol”. The results for the aortic lesion size in assay [2] (3 mg/kg/day) and in assay [2] (60 mg/kg/day) were 71.7 ± 13.7 % of control and 46.2 ± 6.2 % of control, respectively. Also, the “ex vivo LDL antioxidant activity relative to probucol and BHA” value in the assay on LDL [3] (oral) was “markedly more active in this model than the reference agents probucol and BHA”. In the assay on LDL [3] (60 mg/kg/day), the “ex vivo LDL oxidation initial rate” value was 17 % of control. In addition, the “ex vivo LDL oxidation lag time” value in the assay with LDL [3] (60 mg/kg/day) is 482 % of control.

With `c1ccc(Nc2ccc(Nc3ccccc3)cc2)cc1` [N,N'-diphenylphenylenediamine (DPPD), N,N'-diphenylphenylenediamine], the “aortic lesions in rabbits” value in the assay on aortic lesions is recorded as “decrease aortic lesions in rabbits”. Also, the “protection of LDL from oxidation” value with LDL [5] is on record as “protect LDL from oxidation”.

Turning to `COc1ccc(O)c(C(C)(C)C)c1` [BHA, butylated hydroxyanisole], in the assay on human LDL [1], the “LDL oxidation initial rate” value is on record as 11.0 % of control and the “LDL oxidation lag time” value is reported as 239 % of control. In addition, in the assay on LDL [3] (60 mg/kg/day), the “ex vivo LDL oxidation initial rate” value is on record as 77 % of control and the “ex vivo LDL oxidation lag time” value was 116 % of control. In the assay with human LDL [4] (1.0 μM), the “LDL oxidation initial rate” value is 16 % of control.

In the case of `CC(C)(Sc1cc(C(C)(C)C)c(O)c(C(C)(C)C)c1)Sc1cc(C(C)(C)C)c(O)c(C(C)(C)C)c1` [probucol], the “oxidation of LDL in vivo” value in the assay on LDL [6] is “decrease oxidation of LDL in vivo”. In the assay on human LDL [1], the “LDL oxidation initial rate” value was 17.6 % of control and the “LDL oxidation lag time” value is given as 293 % of control. Besides, in assay [2] (120 mg/kg/day), the aortic lesion size was 59.4 ± 6.4 % of control. For the same compound, in the assay with LDL [3] (120 mg/kg/day), the “ex vivo LDL oxidation initial rate” value is given as 70 % of control and the “ex vivo LDL oxidation lag time” value is given as 141 % of control. In addition, in the assay with arterial lesion, the arterial lesion size entry was “decreased arterial lesion size”. Besides, the “LDL oxidation initial rate” value with human LDL [4] (1.0 μM) is 79 % of control.

Turning to `Cc1cc(C(C)(C)C)c(O)c(C(C)(C)C)c1` [butylated hydroxytoluene (BHT), butylated hydroxytoluene], the “aortic lesions in rabbits” value in the assay with aortic lesions is listed as “decrease aortic lesions in rabbits”. In addition, the “protection of LDL from oxidation” value in the assay on LDL [5] is “protect LDL from oxidation”.
